Data as given in publication doi:10.1101/2023.12.04.569845, “Identification of 4-(6-((2-methoxyphenyl)amino)pyrazin-2-yl)benzoic acids as CSNK2A inhibitors with antiviral activity and improved selectivity over PIM3” (bioRxiv, 2023).
Where two headings read alike, the source gives them in different places.

Key:
Experiment in all cases: biochemical
Design in all cases: Thermal shift (DSF, SYPRO Orange) Tm shift of recombinant kinase domains at 10 uM compound
CDK2 = CDK2 (Homo sapiens, UniProt P24941)
EPHA7 = EPHA7 (Homo sapiens, UniProt Q15375)
Chain of EPHA7 (Q15375 whole entry): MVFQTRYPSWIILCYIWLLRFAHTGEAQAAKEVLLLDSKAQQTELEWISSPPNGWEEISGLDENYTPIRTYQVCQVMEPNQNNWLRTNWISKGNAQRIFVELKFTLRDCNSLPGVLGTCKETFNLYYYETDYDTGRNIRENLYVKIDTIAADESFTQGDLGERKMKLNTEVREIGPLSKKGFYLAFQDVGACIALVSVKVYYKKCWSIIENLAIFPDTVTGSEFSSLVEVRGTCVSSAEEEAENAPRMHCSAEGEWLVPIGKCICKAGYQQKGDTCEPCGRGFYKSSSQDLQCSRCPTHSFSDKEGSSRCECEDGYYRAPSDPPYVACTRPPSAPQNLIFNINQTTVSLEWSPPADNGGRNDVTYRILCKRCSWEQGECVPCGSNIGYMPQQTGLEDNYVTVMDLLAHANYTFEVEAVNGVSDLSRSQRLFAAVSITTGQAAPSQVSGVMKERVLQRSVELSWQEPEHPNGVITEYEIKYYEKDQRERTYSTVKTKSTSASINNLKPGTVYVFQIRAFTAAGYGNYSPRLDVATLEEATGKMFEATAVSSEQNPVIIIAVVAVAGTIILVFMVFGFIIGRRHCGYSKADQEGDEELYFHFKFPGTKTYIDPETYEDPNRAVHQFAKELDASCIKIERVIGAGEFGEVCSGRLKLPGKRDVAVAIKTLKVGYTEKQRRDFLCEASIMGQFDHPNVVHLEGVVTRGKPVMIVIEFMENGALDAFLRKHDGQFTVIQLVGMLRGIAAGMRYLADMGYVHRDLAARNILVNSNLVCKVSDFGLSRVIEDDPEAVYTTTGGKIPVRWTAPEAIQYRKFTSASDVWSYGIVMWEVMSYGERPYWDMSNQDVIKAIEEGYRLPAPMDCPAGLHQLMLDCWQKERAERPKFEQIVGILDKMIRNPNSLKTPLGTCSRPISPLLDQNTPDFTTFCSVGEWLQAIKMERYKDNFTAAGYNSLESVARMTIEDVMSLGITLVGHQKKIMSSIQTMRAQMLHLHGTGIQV

Haspin = biological target: T1, Haspin (Homo sapiens, UniProt Q8TF76)
T1 sequence (Q8TF76 1-798): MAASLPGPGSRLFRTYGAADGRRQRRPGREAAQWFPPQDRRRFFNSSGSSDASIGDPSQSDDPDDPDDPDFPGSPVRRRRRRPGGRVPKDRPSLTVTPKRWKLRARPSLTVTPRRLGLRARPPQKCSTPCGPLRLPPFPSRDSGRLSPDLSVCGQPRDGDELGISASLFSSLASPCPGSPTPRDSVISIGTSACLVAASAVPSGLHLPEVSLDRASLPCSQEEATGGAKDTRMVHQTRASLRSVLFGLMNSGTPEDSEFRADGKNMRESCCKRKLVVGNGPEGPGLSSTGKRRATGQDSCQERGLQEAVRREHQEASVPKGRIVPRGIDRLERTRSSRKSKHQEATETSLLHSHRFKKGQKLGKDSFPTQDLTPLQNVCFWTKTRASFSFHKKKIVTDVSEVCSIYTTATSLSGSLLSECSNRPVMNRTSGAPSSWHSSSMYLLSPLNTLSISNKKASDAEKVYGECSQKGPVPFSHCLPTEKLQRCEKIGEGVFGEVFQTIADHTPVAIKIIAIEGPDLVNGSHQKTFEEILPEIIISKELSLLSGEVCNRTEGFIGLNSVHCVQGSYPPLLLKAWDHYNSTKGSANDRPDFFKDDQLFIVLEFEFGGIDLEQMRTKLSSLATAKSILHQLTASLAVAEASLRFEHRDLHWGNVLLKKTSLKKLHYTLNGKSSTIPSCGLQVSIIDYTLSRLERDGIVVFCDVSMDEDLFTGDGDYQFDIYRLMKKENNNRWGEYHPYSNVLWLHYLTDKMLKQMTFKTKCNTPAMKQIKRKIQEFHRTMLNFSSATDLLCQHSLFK

CSNK2a1 = biological target: T2, CSNK2a1 (Homo sapiens, UniProt P68400)
T2 construct: kinase domain

CLK3 = CLK3 (Homo sapiens, UniProt P49761)
EphA2 = EphA2 (Homo sapiens, UniProt P29317)
Chain of EphA2 (P29317 whole entry): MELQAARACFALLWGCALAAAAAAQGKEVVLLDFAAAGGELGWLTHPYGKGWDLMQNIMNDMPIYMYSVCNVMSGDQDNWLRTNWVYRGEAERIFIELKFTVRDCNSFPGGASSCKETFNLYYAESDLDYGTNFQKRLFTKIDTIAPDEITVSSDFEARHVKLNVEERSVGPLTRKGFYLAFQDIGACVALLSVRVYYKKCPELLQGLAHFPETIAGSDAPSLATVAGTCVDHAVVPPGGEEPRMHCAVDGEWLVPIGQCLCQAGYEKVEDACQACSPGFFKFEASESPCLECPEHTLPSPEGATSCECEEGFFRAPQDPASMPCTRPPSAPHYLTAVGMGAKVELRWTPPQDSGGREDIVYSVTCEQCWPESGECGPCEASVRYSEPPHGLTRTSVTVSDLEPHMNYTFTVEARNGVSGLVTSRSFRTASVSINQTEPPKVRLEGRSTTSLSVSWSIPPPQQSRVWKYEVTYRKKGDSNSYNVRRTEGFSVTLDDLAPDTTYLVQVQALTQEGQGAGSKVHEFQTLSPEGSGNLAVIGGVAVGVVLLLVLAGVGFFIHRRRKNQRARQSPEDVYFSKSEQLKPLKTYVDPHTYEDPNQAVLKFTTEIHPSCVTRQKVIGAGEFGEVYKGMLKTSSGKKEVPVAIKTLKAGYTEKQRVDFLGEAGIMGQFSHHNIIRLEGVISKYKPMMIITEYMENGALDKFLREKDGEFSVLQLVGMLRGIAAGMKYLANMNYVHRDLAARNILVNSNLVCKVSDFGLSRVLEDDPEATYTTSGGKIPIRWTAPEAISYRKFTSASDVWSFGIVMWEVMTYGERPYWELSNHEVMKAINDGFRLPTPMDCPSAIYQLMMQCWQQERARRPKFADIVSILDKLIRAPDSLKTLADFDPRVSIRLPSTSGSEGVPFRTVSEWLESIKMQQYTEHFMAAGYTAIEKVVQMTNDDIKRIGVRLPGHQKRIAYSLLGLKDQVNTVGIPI

RSK1_b = biological target: T3, RSK1_b (Homo sapiens, UniProt Q15418)
T3 construct: gene RPS6KA1; second (C-terminal) kinase domain

CAMK2D = CAMK2D (Homo sapiens, UniProt Q13557)
SRPK1 = SRPK1 (Homo sapiens, UniProt Q96SB4)
PIM1 = PIM1 (Homo sapiens, UniProt P11309)
HIPK2 = HIPK2 (Homo sapiens, UniProt Q9H2X6)
FES = FES (Homo sapiens, UniProt P07332)
Chain of FES (P07332 whole entry): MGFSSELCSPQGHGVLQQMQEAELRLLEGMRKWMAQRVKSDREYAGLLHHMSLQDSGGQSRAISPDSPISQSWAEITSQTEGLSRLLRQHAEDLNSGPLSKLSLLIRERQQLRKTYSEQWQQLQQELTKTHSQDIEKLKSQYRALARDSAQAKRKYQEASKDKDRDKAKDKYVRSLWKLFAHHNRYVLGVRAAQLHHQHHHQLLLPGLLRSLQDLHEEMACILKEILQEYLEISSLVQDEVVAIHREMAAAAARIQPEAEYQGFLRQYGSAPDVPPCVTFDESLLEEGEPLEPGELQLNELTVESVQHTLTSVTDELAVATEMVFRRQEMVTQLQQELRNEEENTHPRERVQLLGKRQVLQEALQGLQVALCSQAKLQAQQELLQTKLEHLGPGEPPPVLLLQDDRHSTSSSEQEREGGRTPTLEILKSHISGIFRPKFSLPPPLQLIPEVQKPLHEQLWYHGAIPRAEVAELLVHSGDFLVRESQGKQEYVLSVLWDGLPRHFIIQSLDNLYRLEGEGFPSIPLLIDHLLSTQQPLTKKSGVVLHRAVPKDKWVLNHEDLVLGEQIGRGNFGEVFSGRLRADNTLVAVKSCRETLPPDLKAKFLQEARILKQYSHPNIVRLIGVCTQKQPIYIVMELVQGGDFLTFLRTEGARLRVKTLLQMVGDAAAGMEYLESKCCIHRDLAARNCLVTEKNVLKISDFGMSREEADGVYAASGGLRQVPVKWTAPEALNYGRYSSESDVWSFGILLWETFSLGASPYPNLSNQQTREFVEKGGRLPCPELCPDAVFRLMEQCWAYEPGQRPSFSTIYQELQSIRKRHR

MRCKa = biological target: T4, MRCKa (Homo sapiens, UniProt Q5VT25)
T4 construct: gene CDC42BPA
T4 sequence (Q5VT25 whole entry): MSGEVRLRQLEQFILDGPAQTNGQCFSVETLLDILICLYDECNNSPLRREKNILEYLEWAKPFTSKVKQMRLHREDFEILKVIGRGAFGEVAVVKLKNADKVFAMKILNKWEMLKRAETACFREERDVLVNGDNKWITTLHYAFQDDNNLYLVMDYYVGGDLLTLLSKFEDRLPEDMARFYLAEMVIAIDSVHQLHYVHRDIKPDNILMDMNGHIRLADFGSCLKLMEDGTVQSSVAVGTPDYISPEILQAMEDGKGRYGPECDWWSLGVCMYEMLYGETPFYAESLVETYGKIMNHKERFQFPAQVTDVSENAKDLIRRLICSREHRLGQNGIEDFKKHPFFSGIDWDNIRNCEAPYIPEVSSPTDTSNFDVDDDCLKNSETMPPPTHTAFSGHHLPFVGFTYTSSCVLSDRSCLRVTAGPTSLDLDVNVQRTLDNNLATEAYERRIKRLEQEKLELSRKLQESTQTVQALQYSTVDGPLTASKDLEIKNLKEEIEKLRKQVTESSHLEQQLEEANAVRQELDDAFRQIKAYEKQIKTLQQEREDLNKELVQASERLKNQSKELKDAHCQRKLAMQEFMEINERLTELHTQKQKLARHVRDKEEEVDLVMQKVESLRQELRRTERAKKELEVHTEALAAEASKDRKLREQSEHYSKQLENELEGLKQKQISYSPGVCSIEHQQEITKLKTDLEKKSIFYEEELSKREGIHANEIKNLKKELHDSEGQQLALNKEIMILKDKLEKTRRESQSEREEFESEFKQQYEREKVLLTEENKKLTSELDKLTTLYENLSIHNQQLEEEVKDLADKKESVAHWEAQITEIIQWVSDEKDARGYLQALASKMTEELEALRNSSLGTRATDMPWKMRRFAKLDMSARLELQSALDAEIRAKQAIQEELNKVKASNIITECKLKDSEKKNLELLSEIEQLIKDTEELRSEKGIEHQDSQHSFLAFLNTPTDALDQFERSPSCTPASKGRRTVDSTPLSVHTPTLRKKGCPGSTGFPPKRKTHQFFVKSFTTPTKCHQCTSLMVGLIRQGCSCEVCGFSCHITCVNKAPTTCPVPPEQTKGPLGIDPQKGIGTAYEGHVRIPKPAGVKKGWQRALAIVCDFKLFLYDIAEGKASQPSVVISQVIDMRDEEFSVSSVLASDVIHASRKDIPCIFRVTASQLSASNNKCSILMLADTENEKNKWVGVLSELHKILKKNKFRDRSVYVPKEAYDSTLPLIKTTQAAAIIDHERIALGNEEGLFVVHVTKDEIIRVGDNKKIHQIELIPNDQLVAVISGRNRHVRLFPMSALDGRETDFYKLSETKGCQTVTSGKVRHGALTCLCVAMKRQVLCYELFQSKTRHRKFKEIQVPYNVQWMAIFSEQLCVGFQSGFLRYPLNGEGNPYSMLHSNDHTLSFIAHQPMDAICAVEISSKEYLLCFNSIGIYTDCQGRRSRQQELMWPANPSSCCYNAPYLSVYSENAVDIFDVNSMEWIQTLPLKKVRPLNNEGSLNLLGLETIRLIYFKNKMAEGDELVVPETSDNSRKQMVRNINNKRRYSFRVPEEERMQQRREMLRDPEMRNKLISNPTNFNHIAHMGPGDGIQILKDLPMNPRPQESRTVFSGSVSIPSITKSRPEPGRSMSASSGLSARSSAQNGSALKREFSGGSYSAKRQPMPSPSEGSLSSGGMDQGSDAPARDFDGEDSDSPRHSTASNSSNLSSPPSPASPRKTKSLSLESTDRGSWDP

CSNK2a2 = biological target: T5, CSNK2a2 (Homo sapiens, UniProt P19784)
T5 construct: kinase domain
T5 sequence (P19784 whole entry, the tested form may be a part): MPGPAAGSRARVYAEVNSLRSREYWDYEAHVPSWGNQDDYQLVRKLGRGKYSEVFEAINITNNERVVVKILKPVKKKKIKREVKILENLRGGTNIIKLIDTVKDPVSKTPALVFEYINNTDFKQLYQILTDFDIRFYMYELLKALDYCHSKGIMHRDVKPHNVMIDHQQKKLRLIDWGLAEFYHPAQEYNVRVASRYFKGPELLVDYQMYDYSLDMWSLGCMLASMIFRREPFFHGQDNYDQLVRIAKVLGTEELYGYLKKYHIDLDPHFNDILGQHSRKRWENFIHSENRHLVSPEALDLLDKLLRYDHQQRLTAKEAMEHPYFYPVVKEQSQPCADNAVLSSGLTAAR

With CC(C)Oc1ccc2ccn(-c3cncc(-c4ccc(C(=O)O)cc4)n3)c2c1 [6c] the ΔTm at 10 µM (CDK2; read-out: 6c) was 5 °C, the ΔTm at 10 µM (EPHA7; read-out: 6c) was 1 °C and the ΔTm at 10 µM (Haspin; read-out: 6c) was 0 °C. For the same compound, the ΔTm at 10 µM (CSNK2a1; read-out: 6c) was 15 °C, the ΔTm at 10 µM (CLK3; read-out: 6c) was 8 °C and the ΔTm at 10 µM (EphA2; read-out: 6c) was 3 °C. It also gave a ΔTm at 10 µM (RSK1_b; read-out: 6c) of 2 °C, a ΔTm at 10 µM (CAMK2D; read-out: 6c) of 3 °C and a ΔTm at 10 µM (SRPK1; read-out: 6c) of 6 °C. For the same compound, the ΔTm at 10 µM (PIM1; read-out: 6c) was 10 °C, the ΔTm at 10 µM (HIPK2; read-out: 6c) was 9 °C and the ΔTm at 10 µM (FES; read-out: 6c) was -1 °C. The ΔTm at 10 µM (MRCKa; read-out: 6c) was -1 °C and the ΔTm at 10 µM (CSNK2a2; read-out: 6c) was 16 °C.
COc1ccc(OC(C)C)cc1Nc1cncc(-c2ccc(C(=O)O)cc2)n1 [7c] gave a ΔTm at 10 µM (CDK2; read-out: 7c) of 1 °C, a ΔTm at 10 µM (EPHA7; read-out: 7c) of 0 °C and a ΔTm at 10 µM (Haspin; read-out: 7c) of 5 °C. For the same compound, the ΔTm at 10 µM (CSNK2a1; read-out: 7c) was 15 °C, the ΔTm at 10 µM (CLK3; read-out: 7c) was 7 °C and the ΔTm at 10 µM (EphA2; read-out: 7c) was 1 °C. For the same compound, the ΔTm at 10 µM (RSK1_b; read-out: 7c) was 1 °C, the ΔTm at 10 µM (CAMK2D; read-out: 7c) was 0 °C and the ΔTm at 10 µM (SRPK1; read-out: 7c) was 3 °C. The ΔTm at 10 µM (PIM1; read-out: 7c) was 9 °C, the ΔTm at 10 µM (HIPK2; read-out: 7c) was 7 °C and the ΔTm at 10 µM (FES; read-out: 7c) was 0 °C. For the same compound, the ΔTm at 10 µM (MRCKa; read-out: 7c) was 0 °C and the ΔTm at 10 µM (CSNK2a2; read-out: 7c) was 15 °C.
CC(C)Nc1ccc2cnn(-c3cncc(-c4ccc(C(=O)O)cc4)n3)c2c1 [compound 2, 2] was tested, and the ΔTm at 10 µM (EPHA7; read-out: 2) was 2 °C, the ΔTm at 10 µM (Haspin; read-out: 2) was 3 °C and the ΔTm at 10 µM (CLK3; read-out: 2) was 8 °C. It also gave a ΔTm at 10 µM (EphA2; read-out: 2) of 1 °C, a ΔTm at 10 µM (RSK1_b; read-out: 2) of 4 °C and a ΔTm at 10 µM (CAMK2D; read-out: 2) of 3 °C. The ΔTm at 10 µM (SRPK1; read-out: 2) was 6 °C, the ΔTm at 10 µM (FES; read-out: 2) was 2 °C and the ΔTm at 10 µM (MRCKa; read-out: 2) was 0 °C. The ΔTm at 10 µM (CSNK2a2; read-out: 2) was 15 °C.
